Results reported in US9161944B2, “Method for preventing cancer metastasis” (INSERM (INSTITUT NATIONAL DE LA SANTE ET DE LA SANTE ET DE …, priority 2010, dated 2015).

What was measured:
[1] = test system: MCF-10A; assay: Viability (MTT) of non cancerous cells; format: cell-based, human; conditions: FIG. 6D
Experimental: (§1) FIG. 6: JPH1701 (or Ohmline) activity on cell motility on cancerous MDA-MB-435s cells and on non cancerous MCF-10A cells. The motility was tested by transwell assay. Additionally, viability tests were performed using MTT assays. FIG. 6A-B) JPH1701 (the concentrations of JPH1701, for the FIG. 6A, are 0 (control condition), 10 nM, 100 nM, 300 nM and 1 μM) reduces motility (FIG. 6A) of MDA-MB-435s wild type (WT) cells from 10 nM without affecting viability (FIG. 6B) except at 10 μM. FIG. 6C-D) MCF-10A motility (FIG. 6C) and viability (FIG. 6D) are not affected by JPH1701 (the concentrations of JPH1701, for the FIG. 6C, are 0 (control condition), 10 nM, 100 nM, 300 nM and 1 μM). FIG. 6E-F) Effect on SK3 dependent motility.
The immortalized normal mammary epithelial cell lines MCF-10A and 184A1 were cultured in DMEM/Ham's F-12, 1:1 mix containing 5% horse serum (Invitrogen Life Technologies, France), insulin (10 μg/ml), epidermal growth factor (20 ng/ml), hydrocortisone (0.5 μg/ml) and, respectively for MCF-10A and 184A1, 100 ng/ml cholera toxin and 1 ng/ml cholera toxin plus 5 μg/ml transferrin.

[2] = test system: MDA-MB-435s shSK3; assay: Transwell motility of cells not expressing SK3; format: cell-based, human; conditions: 10 nM to 300 nM; non-specific effect at 1 μM, FIG. 6F
Experimental: as §1
MDA-MB-435s and HEK293 cells were transduced with lentiviral vector at multiplicities of infection (MOI) of 1 to 3 in the presence of polybrene (4 μg/ml, Sigma). The transduction rate for MDA-MB-435s determined by counting GFP cells was close to 90%. In order to selection one clone of HEK293-SK3/KCa2.3 limit dilution were realized and each clone was tested in patch clamp with apamin and edelfosine and by western blotting in order to control expression of SK3/KCa2.3 channel.
At least three independent experiments were each performed in triplicate.

[3] = target: T1, SK1 (Homo sapiens, UniProt Q92952); assay: Whole-cell K+ currents in HEK293 cells expressing recombinant SK1; format: cell-based; conditions: 10 μM, FIG. 9B
T1 construct: expressed in transfected cells; host or cells: HEK293
Experimental: FIG. 9. Selectivity effect of JPH1701 on SKCa subtype and on IKCa channels. FIG. 9A) Example of whole-cell K^+ currents recorded in HEK293 cells expressing recombinants SK1, SK2, SK3 and IKCa channels before and after application of 10 μM JPH1701 (upper graphs: SK1 and SK2 respectively, bottom graphs: SK3 and IKCa respectively). Currents were generated by ramp protocol from −100 mV to +60 mV in 500 ms from a constant holding of 0 mV and with a pCa 6. FIG. 9B) Histograms showing the effect of 10 μM JPH1701 on SKCa (SK1, SK2, SK3) and IKCa current amplitudes recorded at 0 mV. […] For each channel (SK1, SK2, SK3 and IKCa) the left column (pale grey) represents the control result and the right column (dark grey) represents the result after JPH1701 application.
The selectivity of JPH1701 toward the others members of the SKCa/IKCa channels was tested. […] The experimental protocol was similar to the one used in FIG. 8. JPH1701 was tested for membrane potential from +60 mV to −100 mV on 500 msec.

[4] = test system: LPA (lysophosphatidic acid) receptor; assay: LPA receptor binding
Experimental: Indeed, the molecular structure of JPH1701 resembles to LPA and PAF. This similarity between the molecular structures prompted us to analyse whether some of the JPH1701's effects were mediated through its binding to the PAF receptor or to the LPA (lysophosphatidic acid) receptor. […] The same results were obtained with LPA receptor (105.3±8.0% and 87.2±4.7% of LPA binding respectively at 0.3 and 2 μM JPH1701). It has been also reported that edelfosine inhibits enzyme activity like protein kinase C or phospholipase C that may explain some of its cytostatic and cytotoxic effects.

[5] = test system: MDA-MB-435s cells expressing luciferase; assay: Experimental metastasis model, cells injected into tail vein, BLI; format: in vivo, NMRI nude mice
Experimental: Female NMRI nude mice, 6 weeks old, were purchased from Janvier laboratories. Mice were bred and housed at INSERM, U892, University of Nantes, under the animal care license no 44565.
MDA-MB-435s were incubated with 1 μM JPH1701 or with 2% DMSO/3% ethanol (vehicle) during 24 h and injected (0.75 106) in iv into the lateral tail vein. Next, mice were treated three times a week for 12 weeks with JPH1701 at 15 mg/kg in i.v. or with vehicle.
All of the mice were assessed weekly using whole-body bioluminescent imaging to quantify relative amounts of metastasis burden (ΦImageur™; BIOSPACE Lab, France). Each mouse was given potassium salt of D-luciferin (Interchim) at dose of 150 mg/kg body weight by intraperitoneal injection and anesthetized with Ketamin/xylasin i.p. injection. […] Regions of interest were drawn around the experimental metastases. The amount of metastasis burden within each region of interest was quantified as the relative amount of light produced from the luciferase activity in breast cancer cells and expressed in cpm using the Photovision+ software (version 1.3; Biospace Lab). At necropsy, ex vivo BLI measurement were performed for each tissues collected.
To determine whether a SK3/KCa2.3 blocker such as JPH1701 could prevent metastasis development, we used a model of experimental metastasis with MDA-MB-435s cells expressing the firefly luciferase gene. Cancer cells were injected directly to the systemic circulation into the vein tail. One cohort of mice was treated with JPH1701 three times a week for 12 weeks by i.v. administration. Another cohort was treated with the vehicle in the same conditions. At the end of treatment, metastases were visualized in vivo by bioluminescence imaging (BLI) in 70% (7/10) of control mice and only in 40% (4/10) of JPH1701 treated-mice (Table 4). To go further, mice were sacrificed and detection of metastases in different tissues was performed ex vivo by BLI. The number of positive tissues from each cohort was show in Table 4. Metastatic lesions were detected in all vehicle-treated mice.

[6] = 15 mg/kg i.v. three times a week, 12 weeks, N = 10
[7] = 15 mg/kg i.v., 12 weeks, N = 10

T1 sequence (Q92952 whole entry): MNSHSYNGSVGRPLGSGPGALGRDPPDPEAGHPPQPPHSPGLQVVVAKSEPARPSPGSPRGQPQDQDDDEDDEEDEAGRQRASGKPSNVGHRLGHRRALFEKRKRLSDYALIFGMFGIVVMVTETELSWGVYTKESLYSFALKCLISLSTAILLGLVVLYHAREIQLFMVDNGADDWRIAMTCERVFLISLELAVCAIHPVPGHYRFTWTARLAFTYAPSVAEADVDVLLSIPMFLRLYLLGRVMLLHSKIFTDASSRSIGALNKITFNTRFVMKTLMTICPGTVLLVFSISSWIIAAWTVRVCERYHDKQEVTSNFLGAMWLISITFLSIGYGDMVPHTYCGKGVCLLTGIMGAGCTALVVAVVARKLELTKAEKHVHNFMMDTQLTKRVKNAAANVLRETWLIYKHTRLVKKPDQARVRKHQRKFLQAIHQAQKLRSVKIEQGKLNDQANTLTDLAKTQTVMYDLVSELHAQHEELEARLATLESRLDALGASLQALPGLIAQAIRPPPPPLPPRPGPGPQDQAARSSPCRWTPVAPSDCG

hexadecyloxy-2-O-methyl-sn-glycerol-lactose [JPH1701]
Effect on cell viability of non-cancerous cells [1]: did not affected | Effect on migration ability of cells not expressing SK3 [2]: does not affect | Effect on SK1 current amplitude at 0 mV [3]: significantly reduced | % of LPA binding ([4]; 0.3 μM): 105.3±8.0% | % of LPA binding ([4]; 2 μM): 87.2±4.7% | Adverse effects in mice ([5]; 15 mg/kg i.v. three times a week for 12 weeks): No adverse effects | Number of mice with experimental metastases detected ex vivo by BLI [5, 6]: 7 | Number of mice with experimental metastases detected in vivo by BLI [5, 6]: 4 | Mice with no sign of metastasis development ex vivo ([5]; 15 mg/kg i.v., 12 weeks): 30% | Number of tissues with metastases detected by BLI: column [5, 7]: 2 | Number of tissues with metastases detected by BLI: kidney [5, 7]: 0 | Number of tissues with metastases detected by BLI: leg [5, 7]: 3 | Number of tissues with metastases detected by BLI: liver [5, 7]: 0 | Number of tissues with metastases detected by BLI: lung [5, 7]: 5 | Number of tissues with metastases detected by BLI: lymph node [5, 7]: 1 | Number of tissues with metastases detected by BLI: ovary/uterus [5, 7]: 0 | Number of tissues with metastases detected by BLI: spleen [5, 7]: 0 | Mice with metastases visualized in vivo by BLI at the end of treatment ([5]; 15 mg/kg i.v., 12 weeks, control 70%): 40% | Metastatic profile ([5]; FIGS. 10A-D): shifted the metastatic profile toward a less one | Additional wait until 75% of mice present detectable metastases (vehicle: week 4) ([5]; mice with metastases in vivo on week 12): 3 weeks | Metastasis appearance, times faster in control group than in treated group ([5]; mice with metastases in vivo on week 12, FIG. 10E): roughly 3 times
